# Paper PMC2408617, “Gametogenesis in Malaria Parasites Is Mediated by the cGMP-Dependent Protein Kinase” (PLoS Biology, 2008)
# Entries after “also recorded” stand apart in the source; their conditions may differ.
# Key:
# [1] = tested on: P. falciparum gametocytes (WT / Pfrh3- control); experiment: Gametogenesis assay: rounding up, WT/control gametocytes; format: cell-based, Plasmodium falciparum; details: for inhibition of rounding up: control gametocytes stimulated with XA (or zaprinast)
# Protocol: (§1) P. falciparum gametocytes were produced from the 3D7 clone in human A+ erythrocytes with 10% human serum (National Blood Service), and enriched using Nycodenz (Nycoprep 1.077; Axis-Shield) centrifugation as previously described. For gametogenesis, cells were resuspended at 5 × 10^6 parasites per millilitre and induced with either 20 μM XA or 25–400 μM zaprinast in complete medium, and a reduction (of >5 °C) in temperature. For gametogenesis assays, 10 min post induction, cells were mounted on a wet smear. […] Test reagents including zaprinast, BAPTA-AM, compound 1, and compound 2 were resuspended in DMSO as stock solutions and diluted in complete medium for gametogenesis assays, with the XA stock resuspended in RPMI 1640. The maximum final DMSO concentration in the gametogenesis medium was 0.4%, which was used as a negative control. […] Compound 1 and compound 2 were added at the point of activation with either XA or zaprinast, whereas cells were preincubated with 100 μM BAPTA-AM as previously described. Statistical multivariate analysis was carried out using Poisson regression (Stata 9.2; StataCorp) to compare the effects of genetic background (mutant vs. WT) and experimental replicate (included as categorical data in the analysis) on the rates of rounding up at individual drug concentrations. For each drug concentration, the mutants were tested separately against the WT control, and the resultant output was anti-logged to give the relative risk (and 95% confidence interval) for rounding up with genetic background.
# [2] = tested on: P. falciparum gametocytes; experiment: Gamete emergence from erythrocytes, IFA with anti-Band 3 antibody; format: cell-based, Plasmodium falciparum; details: pretreatment with BAPTA-AM
# Description: Figure 2 Intracellular Ca^2+ Is Not Required for the Initial Step of P. falciparum Gametogenesis To investigate the role of intracellular Ca^2+ in rounding up and exflagellation, stage V Pfrh3^− control gametocytes were pretreated with the BAPTA-AM (BP) before stimulation of gametogenesis with either XA or zaprinast (ZP). (A) (Upper panel) Gametocytes were scored as either round or crescent-shaped, and plotted as percentage rounded-up. […] (Lower panel) The number of centres of exflagellation per 10,000 gametocytes was scored. […] (B) Emergence from host erythrocytes before and after stimulation of gametogenesis with or without BAPTA-AM was scored using IFA with an anti-erythrocyte Band 3 monoclonal antibody. The proportion of cells not reacting with the antibody (indicative of complete emergence) was counted and plotted as a percentage.
# For IFA, 3 × 10^6 mature P. falciparum gametocytes were fixed in paraformaldehyde according to a method used for P. berghei. Cells were washed thoroughly and allowed to settle on wells coated with 0.01% poly-L-lysine solution. […] Digital images were recorded using a side-mounted 1K 1.3M pixel High Sensitivity AMT Advantage ER CCD camera system.
# [3] = tested on: P. falciparum gametocytes; experiment: Gametogenesis assay: exflagellation; format: cell-based, Plasmodium falciparum; details: for inhibition of exflagellation: gametocytes stimulated with XA or zaprinast
# Protocol: as §1
# PfPKGT618M gametocytes = experiment: Gametogenesis assay: rounding up, PfPKGT618M gametocytes; format: cell-based, Plasmodium falciparum; details: for RR, relative risk of rounding up, T618M vs WT: Poisson regression
# Protocol: as §1
# (§2) Supplementary file pbio.0060139.st002.doc: Table S2 Poisson Regression Analysis for Compound 1 Sensitivity of Rounding Up of Both Mutants Compared to WT Each rounding-up measurement was made by counting 200 cells and scoring for rounding up (or not rounding up). At each compound 1 concentration, rounding-up replicate counts for both clones were compared to WT values separately by Poisson regression analysis using the Stata 9.2 package (StataCorp). Where n < 2 (indicated by n.d.), data were excluded from the analysis. Compound 1 concentration (comp1) is shown in micromolar. The p-values from this analysis and the relative risk (RR) of rounding up with genetic background (and 95% confidence intervals [CI]) are shown. (38 KB DOC) Click here for additional data file.
# PfPKGT618Q gametocytes = experiment: Gametogenesis assay: rounding up, PfPKGT618Q gametocytes; format: cell-based, Plasmodium falciparum; details: for RR, relative risk of rounding up, T618Q vs WT: Poisson regression
# Protocol: as §1, §2
# PfPKGT618M = target: T1, PfPKGT618M (Plasmodium falciparum, UniProt Q8I719, T618M); experiment: Recombinant PKG activity assay, T618M mutant; format: biochemical; details: versus WT
# T1 construct: The gene encoding full-length PfPKG was cloned into the pTrcHis expression plasmid (Invitrogen); His tag (from pTrcHis vector); made in house; host or cells: Escherichia coli
# T1 sequence (Q8I719 whole entry T618M): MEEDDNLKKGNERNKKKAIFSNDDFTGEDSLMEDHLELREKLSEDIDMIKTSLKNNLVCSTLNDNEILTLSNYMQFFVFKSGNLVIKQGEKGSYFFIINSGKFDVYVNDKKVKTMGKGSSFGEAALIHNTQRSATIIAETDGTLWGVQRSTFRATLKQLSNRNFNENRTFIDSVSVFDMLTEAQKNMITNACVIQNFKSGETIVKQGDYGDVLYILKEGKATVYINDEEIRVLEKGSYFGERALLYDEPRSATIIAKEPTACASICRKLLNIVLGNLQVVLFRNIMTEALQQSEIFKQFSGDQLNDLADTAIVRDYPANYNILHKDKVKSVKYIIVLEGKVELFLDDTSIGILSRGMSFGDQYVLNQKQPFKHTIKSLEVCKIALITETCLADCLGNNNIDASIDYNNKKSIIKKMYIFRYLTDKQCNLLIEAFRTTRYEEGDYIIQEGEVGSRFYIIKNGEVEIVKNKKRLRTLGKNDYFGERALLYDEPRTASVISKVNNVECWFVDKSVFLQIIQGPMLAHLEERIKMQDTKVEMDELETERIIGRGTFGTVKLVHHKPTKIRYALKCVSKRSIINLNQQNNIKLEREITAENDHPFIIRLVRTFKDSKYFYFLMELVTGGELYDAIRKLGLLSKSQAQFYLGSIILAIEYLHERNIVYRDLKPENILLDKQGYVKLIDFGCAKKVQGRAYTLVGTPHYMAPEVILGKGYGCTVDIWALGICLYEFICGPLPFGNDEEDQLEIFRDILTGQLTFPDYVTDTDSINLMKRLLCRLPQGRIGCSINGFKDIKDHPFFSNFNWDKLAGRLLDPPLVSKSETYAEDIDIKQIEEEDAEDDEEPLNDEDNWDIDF
# Description: (§3) Figure 4 Substitution of a Key Active Site Threonine Residue Confers Compound 1 Insensitivity to Recombinant PfPKG (A) An alignment of regions of PfPKG in the ATP-binding pocket, thought to interact with compound 1, with those of other apicomplexans. Conserved active site residues highlighted in grey were predicted to approach compound 1 in a model of the Eimeria tenella PKG [29] (EtPKG). The threonine residue (T618), substituted in PfPKG in this study, is highlighted in grey and marked with an asterisk. Amino acid sequences are numbered to the right of the blocks of sequence. (B) Dose-response curves showing the effect of compound 1 on recombinant PKG enzyme activity assayed in the presence of 10 μM cGMP. Red diamonds indicate full-length WT PfPKG; black triangles, mutated PfPKG with T618 replaced by a glutamine residue; and blue squares, mutated PfPKG with T618 replaced by a methionine residue.
# The activity of recombinant and native PKG was measured using a modification of standard procedures. The gene encoding full-length PfPKG was cloned into the pTrcHis expression plasmid (Invitrogen). […] Radiolabelled peptide was detected on 96-well multiscreen phosphocellulose plates (MAPH-NOB; Millipore) by scintillation counting on a Wallac 1450 Microbeta scintillation β-counter (Perkin-Elmer). […]
# T. gondii = details: cited from earlier work
# P. berghei = details: cited from earlier work
# PfPKGT618Q = target: T2, PfPKGT618Q (Plasmodium falciparum, UniProt Q8I719, T618Q); experiment: Recombinant PKG activity assay, T618Q mutant; format: biochemical
# T2 construct: The gene encoding full-length PfPKG was cloned into the pTrcHis expression plasmid (Invitrogen); His tag (from pTrcHis vector); made in house; host or cells: Escherichia coli
# T2 sequence (Q8I719 whole entry T618Q): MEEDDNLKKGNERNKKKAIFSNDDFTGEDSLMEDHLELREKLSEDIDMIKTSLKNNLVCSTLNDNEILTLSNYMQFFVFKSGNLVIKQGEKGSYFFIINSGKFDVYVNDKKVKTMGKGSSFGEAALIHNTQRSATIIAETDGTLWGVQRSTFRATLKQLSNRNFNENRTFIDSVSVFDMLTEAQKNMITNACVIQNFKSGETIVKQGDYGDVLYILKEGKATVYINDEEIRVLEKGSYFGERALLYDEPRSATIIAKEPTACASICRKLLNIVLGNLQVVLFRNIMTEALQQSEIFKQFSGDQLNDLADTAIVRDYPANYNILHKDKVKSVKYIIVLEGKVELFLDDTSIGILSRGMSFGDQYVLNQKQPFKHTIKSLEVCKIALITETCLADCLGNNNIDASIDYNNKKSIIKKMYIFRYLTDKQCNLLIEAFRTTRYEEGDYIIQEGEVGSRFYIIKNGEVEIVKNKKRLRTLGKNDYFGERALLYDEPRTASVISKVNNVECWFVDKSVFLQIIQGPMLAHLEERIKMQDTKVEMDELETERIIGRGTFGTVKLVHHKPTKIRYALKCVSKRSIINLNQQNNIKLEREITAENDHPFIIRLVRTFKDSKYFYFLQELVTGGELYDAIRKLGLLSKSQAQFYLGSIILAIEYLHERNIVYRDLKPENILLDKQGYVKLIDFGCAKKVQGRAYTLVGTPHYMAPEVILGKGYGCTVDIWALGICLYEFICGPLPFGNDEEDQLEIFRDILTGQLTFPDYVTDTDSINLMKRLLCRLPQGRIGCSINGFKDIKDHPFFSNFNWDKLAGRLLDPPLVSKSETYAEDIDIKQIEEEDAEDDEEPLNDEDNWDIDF
# Description: as §3
# (§4) The activity of recombinant and native PKG was measured using a modification of standard procedures. The gene encoding full-length PfPKG was cloned into the pTrcHis expression plasmid (Invitrogen). Substitution of specific amino acids of PfPKG was carried out using a QuickChange Multi Site-Directed Mutagenesis kit (Stratagene) according to the manufacturer's instructions. Expression, affinity purification of E. coli–expressed recombinant proteins, and PKG activity assays were performed as previously described. All experiments were performed at least twice in triplicate. PKG measurements in native P. falciparum proteins were performed using an adaptation of a previously described assay. Briefly, ring stage parasites were exposed to 0.15% saponin solution in PBS to free the parasites from their host cells. […] Radiolabelled peptide was detected on 96-well multiscreen phosphocellulose plates (MAPH-NOB; Millipore) by scintillation counting on a Wallac 1450 Microbeta scintillation β-counter (Perkin-Elmer). […]
# [4] = tested on: cGMP-dependent kinase activity in P. falciparum lysates; experiment: Native cGMP-dependent kinase activity in cell lysates; format: biochemical, Plasmodium falciparum; details: control versus PfPKGT618Q lysates
# Protocol: as §4, with “cells. Both gametocyte and ring stage parasite pellets were lysed in HBS buffer (50 mM Hepes [pH 7.4], 1 mM EDTA, 1% Nonidet P-40, 10 mM NaF, 0.1 mM sodium orthovanadate, 1 mM dithiotreitol) supplemented with a 1/100 dilution of Sigma-Aldrich Protease Inhibitor Cocktail. Parasite lysis was confirmed by microscopic examination of Giemsa-stained thin smears.” for “cells.”
# [5] = tested on: P. falciparum asexual blood stages; experiment: Asexual parasite growth inhibition, [3H]-hypoxanthine incorporation; format: cell-based, Plasmodium falciparum; details: unpublished data
# Protocol: Asexual parasite growth assays were carried out to obtain the IC50 of test compounds using inhibition of incorporation of [^3H]-hypoxanthine, and to compare growth rates between transfected clones. Briefly, in 96-well plates, each test well was dosed at early trophozoite stage with 10 μl of [^3H]-hypoxanthine (GE Healthcare) to a final concentration of 0.2 μCi. The radioactivity of the [^3H]-hypoxanthine incorporated into parasite nucleic acid over 24 h was determined relative to the WT controls using a Wallac 1450 Microbeta scintillation β-counter (Perkin-Elmer). This assay was done in triplicate and repeated at least three times.
# Eimeria = details: cited from earlier work
# [6] = 1–5 μM compound, XA stimulation
smiles,measurement,setting,value
CC(=O)OCOC(=O)CN(CC(=O)OCOC(C)=O)c1ccccc1OCCOc1ccccc1N(CC(=O)OCOC(C)=O)CC(=O)OCOC(C)=O [BAPTA-AM],inhibition of rounding up,[1],failed to inhibit the rounding up
same,emergence of gametes from erythrocytes,[2],reduced emergence of gametes from erythrocytes
same,inhibition of exflagellation,[3],blocked exflagellation
CN1CCC(c2cc(-c3ccncc3)c(-c3ccc(F)cc3)[nH]2)CC1 [compound 1],"RR, relative risk of rounding up, T618M vs WT",PfPKGT618M gametocytes; compound 1 0.1 μM,1.014
same,"RR, relative risk of rounding up, T618M vs WT",PfPKGT618M gametocytes; compound 1 2 μM,1.020
same,"RR, relative risk of rounding up, T618M vs WT",PfPKGT618M gametocytes; compound 1 4 μM,0.946
same,"RR, relative risk of rounding up, T618M vs WT",PfPKGT618M gametocytes; compound 1 5 μM,1.010
same,"RR, relative risk of rounding up, T618M vs WT",PfPKGT618M gametocytes; compound 1 6 μM,1.002
same,"RR, relative risk of rounding up, T618M vs WT",PfPKGT618M gametocytes; compound 1 20 μM,0.861
same,difference in sensitivity of PfPKGT618M line compared to control cells,PfPKGT618M gametocytes; rounding up and exflagellation,no significant difference in sensitivity
same,inhibitory effects on rounding up of PfPKGT618Q gametocytes,"PfPKGT618Q gametocytes; 2 μM, stimulation with zaprinast or XA",absence of inhibitory effects
same,rounding up of PfPKGT618Q gametocytes,PfPKGT618Q gametocytes; [6],rounded up to almost normal levels
same,"RR, relative risk of rounding up, T618Q vs WT",PfPKGT618Q gametocytes; compound 1 0.1 μM,1.031
same,"RR, relative risk of rounding up, T618Q vs WT",PfPKGT618Q gametocytes; compound 1 2 μM,1.827
same,"RR, relative risk of rounding up, T618Q vs WT",PfPKGT618Q gametocytes; compound 1 5 μM,2.248
same,"RR, relative risk of rounding up, T618Q vs WT",PfPKGT618Q gametocytes; compound 1 6 μM,1.974
same,"RR, relative risk of rounding up, T618Q vs WT",PfPKGT618Q gametocytes; compound 1 8 μM,1.910
same,"RR, relative risk of rounding up, T618Q vs WT",PfPKGT618Q gametocytes; compound 1 10 μM,1.649
same,"RR, relative risk of rounding up, T618Q vs WT",PfPKGT618Q gametocytes; compound 1 20 μM,1.283
same,lower sensitivity of PfPKGT618Q gametocytes than control cells (rounding up),"PfPKGT618Q gametocytes; range of inhibitor concentrations, approximately",10–20 fold
same,increase in sensitivity of T618M recombinant enzyme,PfPKGT618M,< 4 fold
same,effect on infection by T. gondii in mice,T. gondii,cure
same,effect on P. berghei infections in mice,P. berghei,delays the onset
same,gametocytes in which change of shape is prevented,[1],over 90%
same,rounding up of control gametocytes,[1]; [6],reduced rounding up to background levels
same,inhibition of rounding up,[1],inhibited by compound 1 in a dose-dependent manner
same,IC50,"PfPKGT618Q; 10 μM cGMP, read-out: IC50, PfPKGT618Q recombinant enzyme",17.8 ± 4.7 µM
same,"less sensitive, PfPKGT618Q versus WT recombinant enzyme",PfPKGT618Q; ratio of IC50 values,"over 3,000 times"
same,decreased sensitivity conferred by T618Q in the recombinant protein,PfPKGT618Q; versus WT,"> 3,000 fold"
same,sensitivity of cGMP-dependent kinase activity in control and mutant lysates,[4],equivalent levels of sensitivity
same,inhibition of exflagellation,[3],inhibited by compound 1 in a dose-dependent manner; also recorded: inhibited exflagellation in a dose-dependent manner
same,difference in sensitivity of exflagellation between control and PfPKGT618Q cell lines,[3]; unpublished data,no significant difference in sensitivity
same,IC50,[5],2.7 ± 0.17 µM
same,effect on Eimeria infection in chickens,Eimeria,cure
